# Assays:
# MPNST cells = assay: Colony formation assay; format: cell-based, human; conditions: for IC50: Homo sapiens, 24 h
# [1] = Flavopiridol plasma pharmacokinetics in phase I trial; format: in vivo, human
# [2] = system: dedifferentiated liposarcoma cell lines, with amplified CDK4; assay: Sensitivity of liposarcoma cell lines; format: cell-based, human; conditions: prior observations, data not shown
# [3] = human plasma; cited from earlier work
# CDK2 = conditions: cited from earlier work
# CDK4 = conditions: cited from earlier work
# CDK6 = conditions: cited from earlier work
# CDK9 = conditions: cited from earlier work
# [4] = patients, cited from earlier work
Compound,IC50 (MPNST cells) [nM],"colony formation (percentage of untreated controls) (MPNST cells; MPNST cells, flavopiridol alone 150 nM 24 hours, colonies after 10 days) [%]",time point at which Cmax was observed ([1]; first time point analyzed in each schedule) [h],"Cmax ([1]; human, plasma, intravenous, Mean Cmax, cycle 1, cohort 8 (doxorubicin 60, flavopiridol 90 (50/40) mg/m^2), n 4) [µM]",sensitivity to flavopiridol [2],protein binding in plasma [3] [%],inhibition of CDK2 (CDK2),inhibition of CDK4 (CDK4),inhibition of CDK6 (CDK6),inhibition of CDK9 (CDK9),"MTD, single agent bolus schedule ([4]; approximate) [mg/m^2]","MTD, single agent divided dose flavopiridol therapy ([4]; bolus followed by infusion) [mg/m^2]"
COc1cccc2c1C(=O)c1c(O)c3c(c(O)c1C2=O)C[C@@](O)(C(=O)CO)C[C@@H]3O[C@H]1C[C@H](N)[C@H](O)[C@H](C)O1 [doxorubicin],15,,,,,,,,,,,
CN1CC[C@H](c2c(O)cc(O)c3c(=O)cc(-c4ccccc4Cl)oc23)[C@H](O)C1 [flavopiridol],150,59,0.5,3.33,highly sensitive,90,nanomolar concentrations,nanomolar concentrations,nanomolar concentrations,nanomolar concentrations,~70,90

# — paper PMC3343204 (Clinical Cancer Research, 2012)
